This assay concerns JR251 or RBL cells. The experiment in a line: Store-operated calcium entry, either JR251 or RBL cells, or both. In kind it is cell-based. The essentials:
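Orai1/STIM1 stable cells: fluo-4-AM loaded, compound 30 min at RT in Ca2+-free HBSS, then CaCl2 added; IC50 from Peak-Basal FLIPR fluorescence. RBL-2H3 cells: compound 5 min, then thapsigargin (5.5× stock, 5.5 uM) 25 min, then calcium added; IC50 from Upslope (signal 7 s after calcium minus baseline).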

Bounds are passed on as bounds.

By IC50 is commonly meant the concentration at which inhibition is half-maximal. `O=C(O)c1c(-c2ccc(Cl)cc2)csc1NC(=O)C1Cc2ccccc2N1` (centres unmarked) [4-(4-chlorophenyl)-2-(indoline-2-carboxamido)thiophene-3-carboxylic acid]: the IC50 was less than 10 µM. For `O=C(O)c1c(-c2ccc(Cl)cc2)csc1NC(=O)N1Cc2ccccc2C1` [4-(4-chlorophenyl)-2-(isoindoline-2-carboxamido)thiophene-3-carboxylic acid], the IC50 is less than 10 µM. Turning to `O=C(Nc1scc(-c2ccc(Cl)cc2)c1C(=O)O)c1ccncc1` [4-(4-chlorophenyl)-2-(isonicotinamido)thiophene-3-carboxylic acid], the half-inhibitory concentration (IC50) is less than 10 µM. To `O=C(Nc1scc(-c2ccc(Cl)cc2)c1C(=O)O)c1ccno1` [4-(4-chlorophenyl)-2-(isoxazole-5-carboxamido)thiophene-3-carboxylic acid] belongs less than 10 µM; to `O=C(Nc1scc(-c2ccc(Cl)cc2)c1C(=O)O)c1cc2ccccn2n1` [4-(4-chlorophenyl)-2-(pyrazolo[1,5-a]pyridine-2-carboxamido)thiophene-3-carboxylic acid], less than 10 µM.

Consider `O=C(Nc1scc(-c2ccc(Cl)cc2)c1C(=O)O)c1cc2ncccn2n1` [4-(4-chlorophenyl)-2-(pyrazolo[1,5-a]pyrimidine-2-carboxamido)thiophene-3-carboxylic acid], for which the IC50 is less than 10 µM.

Consider `O=C(Nc1scc(-c2ccc(Cl)cc2)c1C(=O)O)c1ncc2ccccc2n1` [4-(4-chlorophenyl)-2-(quinazoline-2-carboxamido)thiophene-3-carboxylic acid], for which the IC50 is less than 10 µM.

On to `O=C(Nc1scc(-c2ccc(Cl)cc2)c1C(=O)O)c1ccc2ccccc2n1` [4-(4-chlorophenyl)-2-(quinoline-2-carboxamido)thiophene-3-carboxylic acid], for which the IC50 is less than 10 µM. The value for `O=C(Nc1scc(-c2ccc(Cl)cc2)c1C(=O)O)c1cnc2ccccc2n1` [4-(4-chlorophenyl)-2-(quinoxaline-2-carboxamido)thiophene-3-carboxylic acid] was less than 10 µM. To `O=C(Nc1scc(-c2ccc(Cl)cc2)c1C(=O)O)c1cscn1` [4-(4-chlorophenyl)-2-(thiazole-4-carboxamido)thiophene-3-carboxylic acid] belongs less than 10 µM.

For the compound `O=C(Nc1scc(-c2ccc(Cl)cc2)c1C(=O)O)c1cc2nccnc2s1` [4-(4-chlorophenyl)-2-(thieno[2,3-b]pyrazine-6-carboxamido)thiophene-3-carboxylic acid], the IC50 is less than 10 µM. In the case of `O=C(O)c1c(-c2ccc(Cl)cc2)csc1NC(=O)c1csc2nnsc12` [4-(4-chlorophenyl)-2-(thieno[2,3-d][1,2,3]thiadiazole-6-carboxamido)thiophene-3-carboxylic acid], the 50% inhibitory concentration (IC50) is less than 10 µM. For the compound `O=C(Nc1scc(-c2ccc(Cl)cc2)c1C(=O)O)c1cc2sccc2s1` [4-(4-chlorophenyl)-2-(thieno[3,2-b]thiophene-2-carboxamido)thiophene-3-carboxylic acid], the IC50 was less than 10 µM. To `O=C(Nc1scc(-c2ccc(Cl)cc2)c1C(=O)O)c1ccsc1` [4-(4-chlorophenyl)-2-(thiophene-3-carboxamido)thiophene-3-carboxylic acid] belongs less than 10 µM; to `N#Cc1ccc(-c2csc(NC(=O)CCc3ccccc3)c2C(=O)O)cc1` [4-(4-cyanophenyl)-2-(3-phenylpropanamido)thiophene-3-carboxylic acid], less than 10 µM. To `N#Cc1ccc(-c2csc(NC(=O)c3cc4sccc4s3)c2C(=O)O)cc1` [4-(4-cyanophenyl)-2-(thieno[3,2-b]thiophene-2-carboxamido)thiophene-3-carboxylic acid] belongs less than 10 µM; to `O=C(CCc1ccccc1)Nc1scc(-c2ccc(O)cc2)c1C(=O)O` [4-(4-hydroxyphenyl)-2-(3-phenylpropanamido)thiophene-3-carboxylic acid], less than 10 µM; to `COc1ccc(-c2csc(NC(=O)CCc3ccccc3)c2C(=O)O)cc1` [4-(4-methoxyphenyl)-2-(3-phenylpropanamido)thiophene-3-carboxylic acid], less than 10 µM.

As to `O=C(CCc1ccccc1)Nc1scc(-c2cc3cc(Cl)ccc3o2)c1C(=O)O` [4-(5-chlorobenzofuran-2-yl)-2-(3-phenylpropanamido)thiophene-3-carboxylic acid], the half-inhibitory concentration (IC50) is less than 10 µM. To `O=C(Nc1scc(-c2cc3cccc(-c4cc[nH]n4)c3o2)c1C(=O)O)c1cc2ccccc2o1` [4-(7-(1H-pyrazol-3-yl)benzofuran-2-yl)-2-(benzofuran-2-carboxamido)thiophene-3-carboxylic acid] belongs less than 10 µM; to `O=C(Nc1scc(-c2cc3cccc(-c4cn[nH]c4)c3o2)c1C(=O)O)c1cc2ccccc2o1` [4-(7-(1H-pyrazol-4-yl)benzofuran-2-yl)-2-(benzofuran-2-carboxamido)thiophene-3-carboxylic acid], less than 10 µM; to `CC(=O)Oc1cccc2cc(-c3csc(NC(=O)c4cc5ccccc5o4)c3C(=O)O)oc12` [4-(7-acetoxybenzofuran-2-yl)-2-(benzofuran-2-carboxamido)thiophene-3-carboxylic acid], less than 10 µM. The value for `O=C(Nc1scc(-c2cc3cccc(O)c3o2)c1C(=O)O)c1cc2ccccn2n1` [4-(7-hydroxybenzofuran-2-yl)-2-(pyrazolo[1,5-a]pyridine-2-carboxamido)thiophene-3-carboxylic acid] was less than 10 µM. To `O=C(Nc1scc(OC(=O)c2cc3ccccc3o2)c1C(=O)O)c1cc2ccccc2o1` [4-(benzofuran-2-carbonyloxy)-2-(benzofuran-2-carboxamido)thiophene-3-carboxylic acid] belongs less than 10 µM; to `O=C(Nc1scc(OC(=O)c2cc3ccccc3o2)c1C(=O)O)OCc1ccccc1` [4-(benzofuran-2-carbonyloxy)-2-(benzyloxycarbonylamino)thiophene-3-carboxylic acid], less than 10 µM. For the compound `Cc1ccc(-c2csc(NC(=O)/C=C/c3ccco3)c2C(=O)O)cc1` [(E)-2-(3-(furan-2-yl)acrylamido)-4-p-tolylthiophene-3-carboxylic acid], the IC50 is less than 10 µM.

As for `O=C(Nc1scc(/C=C/c2ccc(Cl)cc2)c1C(=O)O)c1cc2ccccc2o1` [(E)-2-(benzofuran-2-carboxamido)-4-(4-chlorostyryl)thiophene-3-carboxylic acid], the IC50 was less than 10 µM. `O=C(Nc1scc(/C=C/c2ccc(F)cc2)c1C(=O)O)c1cc2ccccc2o1` [(E)-2-(benzofuran-2-carboxamido)-4-(4-fluorostyryl)thiophene-3-carboxylic acid]: the IC50 is less than 10 µM. Regarding `N#C/C(=C\c1ccco1)C(=O)Nc1scc(-c2ccc(Cl)cc2)c1C(=O)O` [(E)-4-(4-chlorophenyl)-2-(2-cyano-3-(furan-2-yl)acrylamido)thiophene-3-carboxylic acid], the IC50 is less than 10 µM.

Turning to `N#C/C(=C\c1ccccc1)C(=O)Nc1scc(-c2ccc(Cl)cc2)c1C(=O)O` [(E)-4-(4-chlorophenyl)-2-(2-cyano-3-phenylacrylamido)thiophene-3-carboxylic acid], the IC50 is less than 10 µM. The value for `O=C(O)c1c(-c2ccc(Cl)cc2)csc1NC(=O)[C@@H]1CCc2ccccc2C1` [(R)-4-(4-chlorophenyl)-2-(1,2,3,4-tetrahydronaphthalene-2-carboxamido)thiophene-3-carboxylic acid] was less than 10 µM; that for `O=C(O)c1c(-c2ccc(Cl)cc2)csc1NC(=O)[C@H](F)Cc1ccccc1Cl` [(R)-4-(4-chlorophenyl)-2-(3-(2-chlorophenyl)-2-fluoropropanamido)thiophene-3-carboxylic acid] was less than 10 µM; that for `O=C(O)c1c(-c2ccc(Cl)cc2)csc1NC(=O)[C@H]1CCc2ccccc2C1` [(S)-4-(4-chlorophenyl)-2-(1,2,3,4-tetrahydronaphthalene-2-carboxamido)thiophene-3-carboxylic acid] was less than 10 µM. To `O=C(O)c1c(-c2ccc(Cl)cc2)csc1NC(=O)[C@@H](F)Cc1ccccc1Cl` [(S)-4-(4-chlorophenyl)-2-(3-(2-chlorophenyl)-2-fluoropropanamido)thiophene-3-carboxylic acid] belongs less than 10 µM; to `O=C(Nc1scc(-c2ccc(Br)cc2)c1C(=O)O)/C(F)=C/c1ccccc1` [(Z)-4-(4-bromophenyl)-2-(2-fluoro-3-phenylacryl amido)thiophene-3-carboxylic acid], less than 10 µM; to `O=C(Nc1scc(-c2ccc(Cl)cc2)c1C(=O)O)/C(F)=C/c1ccccc1` [(Z)-4-(4-chlorophenyl)-2-(2-fluoro-3-phenylacryl amido)thiophene-3-carboxylic acid], less than 10 µM.

Turning to `O=C(Nc1scc(-c2ccc(Cl)cc2)c1C(=O)O)/C(F)=C/c1ccccc1Cl` [(Z)-4-(4-chlorophenyl)-2-(3-(2-chlorophenyl)-2-fluoroacrylamido)thiophene-3-carboxylic acid], the IC50 is less than 10 µM. The value for `NC(=O)c1c(-c2ccc(Br)cc2)csc1-n1c(C(=O)O)nc2ccccc21` [N-(4-(4-bromophenyl)-3-carbamoylthiophen-2-yl)-1H-benzo[d]imidazole-2-carboxylic acid] was less than 10 µM.

For the origin of these results see US8394848B2, “Compounds that modulate intracellular calcium” (Calcimedica, Inc., priority 2008, dated 2013).
